# According to patent US12708606B2 (UNIVERSITY OF GEORGIA RESEARCH FOUNDATION, INC., priority 2018, dated 2026):
# What was measured:
# [1] = system: MMP3; assay: qRT-PCR of MMP3 in IL-1β stimulated chondrocytes; type: cell-based, rat; conditions: compared to IL-1β-stimulated cells
# Experimental: (§1) Cells were divided into nine groups: (1) Control: chondrocytes treated with SLFNP; (2) IL-1β: chondrocytes treated with 10 ng/mL IL-1β (Gibco, USA) and cultured for 2 days; (3) LiCl+IL-1β: chondrocytes pre-incubated with LiCl for 1 h followed by treatment with 10 ng/mL IL-1β for 2 days; (4) 1 mM SLFNP+IL-1β: chondrocytes pre-incubated with 1 mM SLFNP for 1 h followed by treatment with IL-1β for 2 days; (5) 5 mM SLFNP+IL-1β: chondrocytes pre-incubated with 5 mM SLFNP for 1 h followed by treatment with IL-1β for 2 days; (6) HA+IL-1β: condrocytes pre-incubated with 10 mg/mL HA for 1 h followed by treatment with IL-1β for 2 days; (7) HA+LiCl+IL-1β: chondrocytes pre-incubated with 10 mM LiCl and HA for 1 h followed by treatment with IL-1β for 2 days; (8) HA+1 mM SLFNP+IL-1β: chondrocytes pre-incubated with 1 mM SLFNP and HA for 1 h followed by treatment with IL-1β for 2 days; (9) HA+5 mM SLFNP+IL-1β: chondrocytes pre-incubated with 5 mM SLFNP and HA for 1 h followed by treatment with IL-1β for 2 days.
# (§2) RNA was isolated from chondrocytes in all groups after 2 days of treatment using an RNA isolation kit (Tiangen Biotechnology). […]
# [2] = system: ADAMTS5; assay: qRT-PCR of ADAMTS5 in IL-1β stimulated chondrocytes; type: cell-based, rat; conditions: compared to IL-1β-stimulated cells
# Experimental: as §1, §2
# [3] = system: IL-1β induced chondrocytes; assay: Live/dead assay of IL-1β induced chondrocytes; type: cell-based, rat; conditions: vs PBS group, IL-1β 10 ng/mL
# Experimental: as §1
# Cells were treated as the same procedures as described above. Live/dead assays were performed using a live/dead viability assay kit (Invitrogen, USA) after 2 days of culture. Briefly, cells were incubated in a solution containing […] of calcein AM and […] of ethidium homodimer-1 for 40 min at room temperature in the dark. […]
# [4] = system: IL6; assay: qRT-PCR of IL6 in IL-1β stimulated chondrocytes; type: cell-based, rat; conditions: compared to IL-1β-stimulated cells
# Experimental: as §1, §2
# [5] = system: COX-2; assay: qRT-PCR of COX-2 in IL-1β stimulated chondrocytes; type: cell-based, rat; conditions: compared to IL-1β-stimulated cells
# Experimental: as §1, §2
# [6] = system: MMP-13; assay: Immunofluorescence staining of MMP-13 in IL-1β stimulated chondrocytes; type: cell-based, rat; conditions: pre-incubation before IL-1β 10 ng/mL
# Experimental: as §1
# After 2 days of culture, cells in the different treatment groups were washed twice with PBS, fixed in 4% formalin for 20 min, and permeabilized with 0.3% Triton X-100 (WN) in PBS for 10 min. After blocking with 5% BSA in PBS for 1 hour at room temperature, primary MMP-13 antibodies were added (1:200 dilution, Abcam, USA) and incubated at 4° C. overnight. […]
# [7] = system: Sprague-Dawley rats with surgery-induced OA; assay: Histological evaluation (H&E, Safranin O-fast green, OARSI score) in rat ACLT OA model; type: in vivo
# Experimental: Sprague Dawley Rats (SD rats) were obtained from Guangxi Medical University. All experiments were conducted in accordance with the guidelines of the Animal Committee and with ethics approval from the Guangxi Medical University Animal Care and Use Committee, China (Protocol Number: 2015-11-27). A total of 152 male SD rats with a weight of 180±20 g were used. After anesthesia, 144 randomly selected rats underwent bilateral anterior cruciate ligament transection (ACLT) on the right knee joints to induce OA. Another 8 rats received sham operations (Sham group), in which the articular cavity was opened and sutured with the short anterior cruciate ligament intact. After surgery, all animals were returned to their cages, with the limbs not immobilized. One month after the surgery, the animals were randomly sorted into […] groups (n=24) and were i.a. injected once per week with the following regimens for 8 weeks: SLFNP+HA (1.74 μg Li in 50 μL 10 mg/mL HA), SLFNP alone (1.74 μg Li in […] PBS), LiCl+HA (3.48 μg Li in 50 μL 10 mg/mL HA), LiCl alone (3.48 μg in 50 μL PBS), HA alone (50 μL), and PBS (50 μL). In the sham groups, no other procedures were conducted. The animals in the six groups were sacrificed at 4 and 8 weeks after therapy (n=12). […]
# [8] = system: iNOS; assay: qRT-PCR of iNOS in IL-1β stimulated chondrocytes; type: cell-based, rat; conditions: compared to IL-1β-stimulated cells
# Experimental: as §1, §2
# [9] = system: Sprague-Dawley rats with surgery-induced OA; assay: Macroscopic evaluation of cartilage lesions in rat ACLT OA model; type: in vivo
# Experimental: In vivo analysis was performed in Sprague-Dawley rats which had undergone bilateral anterior cruciate ligament transection (ACTL) surgery. One month after the surgery, the animals were randomly sorted into six groups (n=24) and were i.a. injected once per week with the following regimens: SLFNP+HA (1.74 μg Li in 50 μL HA), SLFNP alone (1.74 μg Li in 50 μL PBS), LiCl+HA (3.48 μg Li in 50 μL HA), LiCl alone (3.48 μg in 50 μL PBS), HA alone (50 μL), and PBS (50 μL). For control, a sham-operated group was also studied.
# Sprague Dawley Rats (SD rats) were obtained from Guangxi Medical University. […]
# After 4 and 8 weeks of treatment, SD rats were sacrificed by intraperitoneal overdose of pentobarbital. […] The observers evaluated the depth of lesions of the articular cartilage on a scale of 0-4 (0=normal-appearing surface, 1=minimal fibrillation or a slight yellow discoloration of the surface, 2=erosion extending into the superficial or middle layers only, 3=erosion extending into the deep layers, and 4=erosion extending to the subchondral bone). The surface area of erosion was calculated with a digital caliper and presented them as mm2, with a higher score indicating greater cartilage damage.
# [10] = system: IL-1β induced chondrocytes; assay: Chondroprotective effect: CCK-8 viability of IL-1β induced chondrocytes; type: cell-based, rat; conditions: LiCl 10 mM, IL-1β 10 ng/mL, 48 h
# Experimental: The capacity of SLFNP was assessed to protect chondrocytes from deterioration induced by inflammatory cytokines. Chondrocytes were first incubated with SLFNP and then added to the medium 10 ng/mL interleukin-1-beta (IL-1β), a major inflammatory cytokine involved in chronic OA. For comparison, chondrocytes were treated with PBS or LiCl salt (10 mM) before adding IL-1β. In the PBS group, CCK-8 assay found a marked drop of cell viability (37.64% at 48 h). […]
# [11] = cited from earlier work
# [12] = in vivo; cited from earlier work
molecule,measurement,setting,value
"[Cl-].[Li+] [LiCl, lithium chloride]",reduction of mRNA level of MMP3,[1],57.45%
same,reduction of mRNA level of ADAMTSS,[2],59.77%
same,positive ethidium homodimer-1 staining,[3],significantly reduced level of positive staining
same,reduction of mRNA level of IL6,[4],54.94%
same,reduction of mRNA level of COX-2,[5],68.29%
same,MMP13 expression (immunofluorescence),[6],upregulation was attenuated
same,reduction of OARSI score compared to the PBS control,[7]; Week 4,19.28%
same,reduction of OARSI score compared to the PBS control,[7]; Week 8,11.95%
same,reduction of mRNA level of iNOS,[8],57.66%
same,average lesion area,"[9]; Week 4, i.a. once per week",8.5 mm2
same,average lesion area,"[9]; Week 8, i.a. once per week",10.2 mm2
same,cell viability,[10],80.77%
[Li] [lithium],serum lithium toxicity threshold,[11],1.5 mM
hyaluronic acid [HA],time for i.a. injected HA to fully degrade in the joint,[12],~ 60 h
